The subject of one data set is IFN. In words: Cytokine Induction in Human Cells: interferon (IFN) secreted by PBMCs, A549/encephalomyocarditis bioassay. Further: call rule not given here. The class given is cell-based. The note with it: 18 to 24 hours. The essentials: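 Human PBMCs from healthy donors at 1.5-2×10^6 cells/mL in RPMI with 10% FBS, exposed to compounds (typically 0.1 to 100 μM, ≤1% DMSO) for 18 to 24 h at 37° C. Secreted IFN measured by A549/encephalomyocarditis virus cytopathic-effect bioassay, in alpha reference units/mL against NIH human leukocyte IFN standard.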

The next data set relates to TNF. In words: Cytokine Induction in Human Cells: tumor necrosis factor (TNF) secreted by PBMCs, ELISA. Further: call rule not given here. The class given is cell-based. Particulars: 18 to 24 hours. Put shortly: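 Human donor PBMCs at 1.5-2×10^6 cells/mL in RPMI with 10% FBS were exposed to compound, generally at 0.1 to 100 μM (≤1% DMSO final), for 18 to 24 h at 37 °C. Secreted TNF in supernatant was measured by ELISA and reported as pg/mL.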
Background: ELISA stands for enzyme-linked immunosorbent assay.

A word on the melting point: it is the temperature of the solid-liquid transition. For the compound `CCCCc1nc2c(N)nc3cccnc3c2n1CC(C)(C)O` [Example 62, 1,1-Dimethyl-2-(4-amino-2-butyl[1,5]napthyridin-1-yl)ethanol], the melting point was 177 to 179 °C. In the data set on IFN (Dose Concentration 0.1 μM), the IFN induction result is “+”. Further, the IFN induction entry in the data set with IFN (Dose Concentration 1.0 μM) is “+”. For the same compound, the IFN induction entry with IFN (Dose Concentration 10.0 μM) is recorded as “+”. In the data set on IFN (Dose Concentration 100.0 μM), the IFN induction entry is given as “+”. Besides, in the data set with TNF (Dose Concentration 0.1 μM), the TNF induction entry is on record as “+”. Moreover, the TNF induction entry in the data set on TNF (Dose Concentration 1.0 μM) was “+”. Besides, the TNF induction entry in the data set on TNF (Dose Concentration 10.0 μM) is on record as “+”. Further, in the data set with TNF (Dose Concentration 100.0 μM), the TNF induction entry was “+”.
`CCCCc1nc2c(N)nc3cccnc3c2n1CCCCNC(=O)c1ccc(C(OCCN(C)C)c2ccccc2)cc1` (stereo not shown) [Example 112, N^1-[4-(4-Amino-2-butyl-1H-imidazo[4,5-c][1,5]naphthyridin-1-yl)butyl]-4-{[2-(dimethylamino)ethoxy](phenyl)methyl}benzamide] yielded a melting point of 105 to 108 °C. For the same compound, in the data set with IFN (Dose Concentration 0.1 μM), the IFN induction result is on record as “+”. Besides, the IFN induction entry with IFN (Dose Concentration 1.0 μM) is “+”. Moreover, in the data set on IFN (Dose Concentration 10.0 μM), the IFN induction result is “+”. The IFN induction entry in the data set on IFN (Dose Concentration 100.0 μM) is “±”. For the same compound, the TNF induction entry in the data set on TNF (Dose Concentration 0.1 μM) is “+”. In addition, the TNF induction entry with TNF (Dose Concentration 1.0 μM) is reported as “+”. The TNF induction result with TNF (Dose Concentration 10.0 μM) is given as “−”. Besides, in the data set on TNF (Dose Concentration 100.0 μM), the TNF induction result is “−”.
`CC(C)(O)Cn1c(Cc2ccccc2)nc2c(N)nc3cccnc3c21` [Example 65, 1,1-Dimethyl-2-(4-amino-2-phenylmethyl[1,5]napthyridin-1-yl)ethanol] showed a melting point of 211 to 213 °C. Besides, in the data set on IFN (Dose Concentration 0.1 μM), the IFN induction entry was “+”. The IFN induction entry with IFN (Dose Concentration 1.0 μM) was “+”. Besides, the IFN induction result in the data set with IFN (Dose Concentration 10.0 μM) is recorded as “+”. In addition, the IFN induction result in the data set with IFN (Dose Concentration 100.0 μM) is given as “+”. The TNF induction entry with TNF (Dose Concentration 0.1 μM) is “−”. The TNF induction entry in the data set with TNF (Dose Concentration 1.0 μM) was “+”. The TNF induction result in the data set with TNF (Dose Concentration 10.0 μM) is recorded as “+”. For the same compound, the TNF induction entry with TNF (Dose Concentration 100.0 μM) is listed as “+”.
`CCCCc1nc2c(N)nc3cccnc3c2n1CCCCNC(=O)OC(C)(C)C` [Example 45, 1,1-Dimethylethyl N-[4-(4-Amino-2-butyl-1H-imidazo[4,5-c][1,5]naphthyridin-1-yl)butyl]carbamate]: the melting point was 148.5 to 149.5 °C. The IFN induction result in the data set on IFN (Dose Concentration 0.1 μM) is “+”. Also, the IFN induction entry in the data set with IFN (Dose Concentration 1.0 μM) is “+”. The IFN induction entry with IFN (Dose Concentration 10.0 μM) is reported as “+”. Further, the IFN induction entry in the data set on IFN (Dose Concentration 100.0 μM) is listed as “−”. Also, in the data set with TNF (Dose Concentration 0.1 μM), the TNF induction entry is recorded as “−”. The TNF induction entry in the data set with TNF (Dose Concentration 1.0 μM) was “+”. Besides, the TNF induction entry with TNF (Dose Concentration 10.0 μM) is recorded as “+”. Besides, the TNF induction entry in the data set on TNF (Dose Concentration 100.0 μM) was “−”.
Regarding `CCCCc1nc2c(N)nc3cccnc3c2n1CCNC(=O)C(CC(C)C)NC(=O)OC(C)(C)C` (stereo not shown) [Example 101, 1,1-Dimethylethyl N-[1-({[2-(4-Amino-2-butyl-1H-imidazo[4,5-c][1,5]naphthyridin-1-yl)ethyl]amino}carbonyl)-3-methylbutyl]carbamate], the melting point is 184 to 185 °C. Further, the IFN induction result in the data set with IFN (Dose Concentration 0.1 μM) is reported as “−”. In addition, the IFN induction result with IFN (Dose Concentration 1.0 μM) is on record as “−”. Further, in the data set with IFN (Dose Concentration 10.0 μM), the IFN induction entry is given as “+”. In the data set with IFN (Dose Concentration 100.0 μM), the IFN induction result is “+”. Besides, the TNF induction result in the data set on TNF (Dose Concentration 0.1 μM) was “−”. The TNF induction entry in the data set with TNF (Dose Concentration 1.0 μM) is listed as “−”. Further, in the data set on TNF (Dose Concentration 100.0 μM), the TNF induction entry is on record as “+”.
Regarding `CCCCc1nc2c(N)nc3cccnc3c2n1CCNC(=O)C1CCCCC1` [Example 94, N^1-[2-(4-Amino-2-butyl-1H-imidazo[4,5-c][1,5]naphthyridin-1-yl)ethyl]-1-cyclohexanecarboxamide], the melting point lay within 188 to 190 °C. Moreover, the IFN induction result with IFN (Dose Concentration 0.1 μM) is given as “−”. In addition, the IFN induction result in the data set with IFN (Dose Concentration 1.0 μM) is reported as “+”. Further, the IFN induction result in the data set with IFN (Dose Concentration 10.0 μM) is “+”. The IFN induction result in the data set with IFN (Dose Concentration 100.0 μM) is on record as “+”. Moreover, in the data set with TNF (Dose Concentration 0.1 μM), the TNF induction result is reported as “−”. Besides, the TNF induction result with TNF (Dose Concentration 1.0 μM) was “+”. The TNF induction entry in the data set on TNF (Dose Concentration 10.0 μM) was “+”. In addition, in the data set on TNF (Dose Concentration 100.0 μM), the TNF induction entry was “+”.
`CCCCc1nc2c(N)nc3c(c2n1CCNC(=O)c1cc(C(C)(C)C)c(O)c(C(C)(C)C)c1)NCCC3` [Example 104, N^1-[2-(4-Amino-2-butyl-6,7,8,9-tetrahydro-1H-imidazo[4,5-c][1,5]naphthyridin-1-yl)ethyl]-3,5-di-(1,1-dimethylethyl)-4-hydroxybenzamide] returned a melting point of 208 to 210 °C. Further, in the data set with IFN (Dose Concentration 0.1 μM), the IFN induction entry is recorded as “−”. Moreover, in the data set with IFN (Dose Concentration 1.0 μM), the IFN induction result is “+”. In the data set on IFN (Dose Concentration 10.0 μM), the IFN induction entry is “+”. The IFN induction result in the data set with IFN (Dose Concentration 100.0 μM) was “−”. Besides, the TNF induction result in the data set on TNF (Dose Concentration 0.1 μM) was “−”. For the same compound, in the data set with TNF (Dose Concentration 1.0 μM), the TNF induction result is given as “−”. Moreover, in the data set on TNF (Dose Concentration 10.0 μM), the TNF induction entry was “+”. For the same compound, the TNF induction result with TNF (Dose Concentration 100.0 μM) was “−”.
`CCCCc1nc2c(N)nc3cccnc3c2n1CCNC(=O)OC(C)(C)C` [Example 90, 1,1-Dimethylethyl N-[2-(4-Amino-2-butyl-1H-imidazo[4,5-c][1,5]naphthyridin-1-yl)ethyl]carbamate] displayed a melting point of 118 to 120 °C. In addition, the IFN induction entry with IFN (Dose Concentration 0.1 μM) is given as “±”. The IFN induction result in the data set with IFN (Dose Concentration 1.0 μM) is reported as “+”. Also, the IFN induction result in the data set on IFN (Dose Concentration 10.0 μM) was “+”. Moreover, the IFN induction result in the data set with IFN (Dose Concentration 100.0 μM) is on record as “+”. Moreover, the TNF induction result in the data set with TNF (Dose Concentration 0.1 μM) is “−”. Besides, in the data set with TNF (Dose Concentration 1.0 μM), the TNF induction entry is “−”. Moreover, the TNF induction entry in the data set with TNF (Dose Concentration 10.0 μM) is on record as “+”. Moreover, the TNF induction entry with TNF (Dose Concentration 100.0 μM) is recorded as “+”.
`CCCCc1nc2cnc3cccnc3c2n1CCCCNC(=O)OC(C)(C)C` [Example 43, 1,1-Dimethylethyl N-[4-(2-Butyl-1H-imidazo[4,5-c][1,5]naphthyridin-1-yl)butyl]carbamate] gave a melting point of 96 to 98 °C.
Turning to `CC(C)CNc1c([N+](=O)[O-])cnc2cccnc12` [Example 29, N^4-(2-Methylpropyl)-3-nitro[1,5]naphthyridin-4-amine], the melting point lay in the range of 97 to 99 °C.
The compound `O=[N+]([O-])c1cnc2cccnc2c1NCCOc1ccccc1` [Example 81, N^4-(2-Phenoxyethyl)-3-nitro[1,5]naphthyridin-4-amine] yielded a melting point of 107 to 108 °C.
`CC(C)Cn1cnc2cnc3cccnc3c21` [Example 30, 1-(2-Methylpropyl)-1H-imidazo[4,5-c][1,5]naphthyridine] came in with a melting point of 82 to 84 °C.
As to `O.Oc1cc2nnnn2c2cnccc12` (hydrate or solvate), the melting point was 247 to 248 °C (dec.).
With `Clc1cc2nnnn2c2ncccc12` [Example 4, 5-Chlorotetrazolo[1,5-a][1,8]naphthyridine], the melting point was 229 to 230 °C (dec.).
The compound `CC(C)(C)OC(=O)NCCCCNc1c([N+](=O)[O-])cnc2cccnc12` [Example 41, 1,1-Dimethylethyl N-{4-[(3-Nitro[1,5]naphthyridin-4-yl)amino]butyl}carbamate] showed a melting point of 137 to 138 °C.
`CCOCc1nc2cnc3cccnc3c2n1Cc1ccccc1` [Example 68, 2-Ethoxymethyl-1-phenylmethyl-1H-imidazo[4,5-c][1,5]naphthyridine]: the melting point lay within 118 to 119 °C.

The values above are taken from patent publication US7678918B2, “Intermediates for imidazonaphthyridines” (3M Innovative Properties Company, priority 1997, dated 2010).
